Test [1] concerns ET cells. Nature of the test: Cilia length measurement in ET cells by immunostaining. The class given is cell-based, mouse.
The test system of test [2] is ET cells. Nature of the test: Flow-induced cytosolic Ca2+ measurements (Fura-2AM) in ET cells. The format is cell-based, mouse. Conditions: 20 μM.
In test [3] the target is T1, KCa2.3 channels (Homo sapiens, UniProt Q9UGI6). The test is described as follows: Inside-out patch clamp, inhibition of KCa2.3 channels by negative modulator. The class given is cell-based. Particulars: read-out: IC50 for inhibition of KCa2.3 channels; 0.5 μM Ca2+; mean ± SD, n = 5.
Test [4] deals with T1, KCa2.3 channels. The test is described as follows: Inside-out patch clamp, potentiation of human KCa2.3 channels expressed in HEK293 cells. The format is cell-based. (In general: Patch clamp records ionic current or voltage across a cell membrane.)
The test system of test [5] is rat KCa2.2a channels. Conditions: read-out: EC50 on rat KCa2.2a (mean ± SD); cited from earlier work.

Bridge positions count the residues as written; N and C are the ends. Ends that are not written are not given here.

Turning to `CC(=O)Nc1cccc2[nH]c(N[C@H](C)c3cccc(C(F)(F)F)c3)nc12` [AP14145], the cilia length in test [1] (20 μM for two days, acetylated-α-tubulin staining, mean ± SD) amounted to 2.8 ± 0.1 μm. Also, the “flow-induced peak Ca2+ values compared with control” value in test [2] is “reduced”. Besides, the “flow-induced cytosolic Ca2+ transients compared with control” value in test [2] (shear stress 5 dyn/cm2) is “much weaker Ca^2+ transients”. For the same compound, the IC50 (commonly the concentration needed to halve the response being measured) in test [3] was 970 ± 390 nM.

With `Cc1cc(NC2CCCCC2)nc(-n2nc(C)cc2C)n1` [CyPPA], the “Emax on KCa2.3 channels (I / Imax (%))” value in test [4] (current at −90 mV normalized to that obtained at 10 μM Ca2+, mean ± SD) stood at 96 ± 10%. For the same compound, the “selectivity for human KCa2.3 channels over rat KCa2.2a channels” value in test [4] (ratio of EC50 values, Table 1) is recorded as ~ 2.7 fold. Further, the EC50 (commonly the concentration at which the effect is half-maximal) is 2700 ± 600 nM in test [4] (read-out: EC50 on human KCa2.3 (mean ± SD), inside-out patch, HEK293 cells, 0.15 μM Ca2+, currents at −90 mV, mean ± SD) and 7500 ± 1600 nM in test [5].

Turning to `Cc1cc(C)n(-c2nc(Nc3ccc(Cl)cc3)c3ncn(C)c3n2)n1` [NS13001], the EC50 in test [5] was 2200 ± 500 nM.

For “apamin (CNCKAPETALCARRCQQH-NH2; disulfide 1-11, 3-15; UniProt P01500 28-45, looked up)”, the “effect on cilia elongation by compound 4” value in test [1] (apamin 50 nM with compound 4 20 μM, Arl13b marker) is “completely abolished the elongating effect”.

These data come from PMC9396613 (ACS chemical biology, 2022).
